ChEMBL document CHEMBL6078694, “Divergent Metabolism of Cyclo-l-Trp-l-Leu in Streptomyces albofaciens by Hydroxylation and Nucleobase Transfer with Two Cytochrome P450 Enzymes” (J Nat Prod, 2024)
Calls of active or inactive are those of the source.

Legend:
Assay type in all cases: functional, organism-based
Settings in all cases: time 16-20 hrs
Escherichia coli = experiment: Antibacterial activity against Escherichia coli ATCC 35218 assessed as reduction in bacterial growth measured after 16 to 20 hrs by agar disk diffusion method
Enterococcus faecalis = experiment: Antibacterial activity against Enterococcus faecalis DSM 2570 assessed as reduction in bacterial growth measured after 16 to 20 hrs by agar disk diffusion method
Klebsiella pneumoniae = experiment: Antibacterial activity against Klebsiella pneumoniae DSM 26371 assessed as reduction in bacterial growth measured after 16 to 20 hrs by agar disk diffusion method
Bacillus subtilis = experiment: Antibacterial activity against Bacillus subtilis NCLB3610 assessed as reduction in bacterial growth measured after 16 to 20 hrs by agar disk diffusion method
Niallia circulans = experiment: Antibacterial activity against Bacillus circulans NRRL B-380 assessed as reduction in bacterial growth measured after 16 to 20 hrs by agar disk diffusion method
Staphylococcus aureus = experiment: Antibacterial activity against Staphylococcus aureus ATCC29213 assessed as reduction in bacterial growth measured after 16 to 20 hrs by agar disk diffusion method
Staphylococcus delphini = experiment: Antibacterial activity against Staphylococcus delphini DSM 20771 assessed as reduction in bacterial growth measured after 16 to 20 hrs by agar disk diffusion method
Pseudomonas aeruginosa = experiment: Antibacterial activity against Pseudomonas aeruginosa ATCC 27853 assessed as reduction in bacterial growth measured after 16 to 20 hrs by agar disk diffusion method

Measured: Activity

CC(C)C[C@@H]1NC(=O)[C@@H]2C[C@]3(c4nc5c(=O)[nH]c(N)nc5[nH]4)c4ccccc4N[C@@H]3N2C1=O
inactive: all assays above

CC(C)C[C@@H]1NC(=O)[C@H]([C@@H](O)c2c[nH]c3ccccc23)NC1=O
inactive: all assays above
